In brackets after ≈: the same amount, converted by molar mass. Where a name gives a salt, the structure may show the parent alone. Read-outs that look alike come from different tables or passages of the source.

One test deals with C. mucofaciens. Kind of test: Tier 1 Anaerobic MIC Assay. Type of test: cell-based, Corynebacterium mucofaciens (clinical isolate). Particulars: for MIC: Corynebacterium, read-out: microbial inhibition concentration (MIC). The text has this: (§1) 1. Tier 1 Anaerobic MIC Assay
(§2) The data in Table 2 above was generated with the following test method. The purpose of this assay is to determine if a compound or formulation has an antimicrobial effect in vitro.
(§3) It is understood that when not specifically noted in this procedure: • a) All materials, reagents and equipment required for this procedure are of appropriate design and condition of cleanliness and/or sterility as determined by their intended use. • b) The operator has been trained in aseptic technique and has been qualified to perform the procedure and accurately interpret the results. • c) All media required for this procedure was manufactured by a reputable commercial source egg. Difco, Merck etc. and has been stored and prepared as per manufacturer's instructions. • d) All routine laboratory controls, including but not limited to, media function and growth promotion tests, verification of sterility and use of positive and negative controls are being conducted.
(§4) Procedure: (All Procedures Performed in Anaerobic Chamber Except where Noted)
(§5) Incubator at 37° C.; 20-200 ul channel pipette; 5-50 ul channel pipette; 1250 ul 8 channel Thermo Scientific Matrix pipette; 96 well plate shaker (located in incubator); Beckman Coulter deep well cap mat #267005; Beckman Coulter deep 96 well plates #267007; Falcon 96 well tissue culture plates #353072; Vortexer; Culture tubes/caps Disposable sterile gloves; Sterile petri dishes; Standard microbiological lab equipment (sterile pipettes, syringes, tips, loops, etc.); Glass bottles/flasks for media; Autoclave; Parafilm; Spectrophotometer.
(§6) • 0.9% or 0.85% saline solution • BHI agar supplemented with 1% Tween 80 • BHI media supplemented with 1% Tween 80 3. Microbial Strains
Corynebacterium mucofaciens (clinical isolate)
(§7) Prior to testing streak organisms for isolation on BHI with 1% Tween 80 plates, wrap with parafilm and place in 37° C. incubator. When isolated colonies appear remove one representative colony from each plate and place each in 5 ml of BHI with 1% Tween 80 media. Incubate at 37° C. with shaking overnight. Inoculate 20 ml BHI with 1% Tween 80 (per 96 deep well plate to be tested) with 20 ul of the overnight culture (1-1000 dilution).
(§8) Compounds/formulations to be tested are diluted across a 96 deep well plate as shown below (for a 1% stock solution). 800 ul of 0.85% saline is added to wells A1 and B1 (as these will be the negative and positive control respectively). 800 ul each 1% stock solution+positive control are added to wells C1 through H1. 400 ul 0.85% saline are added to all other wells. 400 ul is then removed from #1 well added to the #2 well and mixed. This is then continued across the plate resulting in a 50% dilution between wells across the plate (this can be easily accomplished with an automatic 8 channel Matrix pipette set to withdraw, dispense and mix).
(§9) In row A of a 96 deep well plate pipette 180 ul of sterile BHI with 1% Tween 80 as a negative growth control. All other wells receive 180 ul of inoculum. From the master plate introduce 20 ul to the corresponding row in the test plate using an 8-channel pipette. Loaded plates are placed on a plate shaker in the 37° C. incubator and incubated overnight. The next day read the O.D. 600 on a plate reader. The MIC is the last well from the right that has no bacterial growth.

For another test, the system named is S. epidermidis. Kind of test: Tier 1 Anaerobic MIC Assay. Type of test: cell-based, Staphylococcus epidermidis (clinical isolate). The settings on record: for MIC: Staphylococcus epidermidis, read-out: microbial inhibition concentration (MIC).
Excerpt: as §1, §2, §3, §4, §5, §6
Staphylococcus epidermidis (clinical isolate)
as §7, §8, §9

Test [1] deals with two key underarm bacteria strains. In words: Raw material microbial inhibition, summary in words. Type of test: cell-based. The settings on record: C. mucofaciens and S. epidermidis. The text has this:
The data in Table 2 above was generated with the following test method.

Where [2] appears, read: anaerobic, 37° C. overnight, O.D. 600.

`[Ca+2].[Cl-].[Cl-]` [CaCl]: the “microbial inhibition concentration (MIC)” value with C. mucofaciens (setting [2]) and in the test with S. epidermidis (setting [2]) was above 50000 ppm in each case.
In the case of `CCCCC(CC)COCC(O)CO` (stereo not shown) [Ethylhexyl glycerin], the “microbial inhibition concentration (MIC)” value in the test with C. mucofaciens (setting [2]) and in the test with S. epidermidis (setting [2]) was 12500 ppm each time.
For `CC(C)=CCCC(C)=CCCC(C)=CCO` [Farnesol], the MIC in the test on C. mucofaciens (setting [2]) was found to be 47500 µg/mL (≈ 214 mM); with S. epidermidis (setting [2]), 5940 µg/mL (≈ 26.7 mM).
As to `CCCCCCCCC(CO)CCCCCC` (stereo not shown) [Hexyl Decanol], the “microbial inhibition concentration (MIC)” value turned out to be 6062 ppm with C. mucofaciens (setting [2]) and 3031 ppm with S. epidermidis (setting [2]).
For the compound `CCCCCCCCCCCCCC(=O)OC(C)C` [Isopropyl Myristate], the MIC with C. mucofaciens (setting [2]) and with S. epidermidis (setting [2]) was above 59000 µg/mL in each case.
`CCCCC/C=C\C/C=C\CCCCCCCC(=O)O` [Linoleic acid]: the MIC in the test with C. mucofaciens (setting [2]) and in the test with S. epidermidis (setting [2]) was 3120 µg/mL (≈ 11.1 mM) in each case.
As to `[Cl-].[Na+]` [NaCl], the “microbial inhibition concentration (MIC)” value with C. mucofaciens (setting [2]) and in the test with S. epidermidis (setting [2]) was above 25000 ppm in each case.
For `C=CC(C)(O)CCC=C(C)CCC=C(C)C` (stereo not shown) [Nerolidol], the MIC in the test with C. mucofaciens (setting [2]) and with S. epidermidis (setting [2]) was above 49000 µg/mL throughout.
Regarding `C/C(=C\CO)CCC[C@H](C)CCC[C@H](C)CCCC(C)C` [Phytol], the MIC with C. mucofaciens (setting [2]) and in the test on S. epidermidis (setting [2]) was above 49000 µg/mL each time.
`C=CCCCCCCCCC(=O)N[C@@H](Cc1ccccc1)C(=O)O` [Sepiwhite]: the “microbial inhibition concentration (MIC)” value amounted to 2000 ppm with C. mucofaciens (setting [2]) and 1000 ppm in the test with S. epidermidis (setting [2]). Further, the “performance against the bacteria as raw materials” value (shortened to “performance against the bacteria”) in test [1] is on record as “performing well”.
On to `O=C([O-])[O-].[Ca+2]` [calcium carbonate], for which the “microbial inhibition concentration (MIC)” value with C. mucofaciens (setting [2]) and in the test on S. epidermidis (setting [2]) was above 2500 ppm each time. Moreover, in test [1], the “performance against the bacteria” value was “performing moderately well”.
For the compound `CC(C)=CCCC(C)=CC=O` [citral], the MIC with C. mucofaciens (setting [2]) and in the test on S. epidermidis (setting [2]) was 1500 µg/mL (≈ 9.85 mM) throughout. Also, the “performance against the bacteria” value in test [1] was “performing well”.
For `COC(=O)CCC(=O)OC` [dimethyl succinate], the MIC was 1530 µg/mL in the test with C. mucofaciens (setting [2]) and 3060 µg/mL with S. epidermidis (setting [2]). Moreover, in test [1], the “performance against the bacteria” value is “performing well”.
On the same counts, the results for `C=CCc1ccc(O)c(OC)c1` [eugenol] are 773 µg/mL (≈ 4.71 mM), 773 µg/mL (≈ 4.71 mM) and “performing well”.
As for `N=C(N)c1ccc(OCCCCCCOc2ccc(C(=N)N)cc2)cc1` [hexamidine], the MIC was below 2 µg/mL with C. mucofaciens and 7 µg/mL (≈ 0.0197 mM) in the test on S. epidermidis.
For `CC/C=C\C/C=C\C/C=C\CCCCCCCC(=O)O` [linolenic acid], the MIC with C. mucofaciens (setting [2]) and in the test on S. epidermidis (setting [2]) was 1090 µg/mL (≈ 3.93 mM) throughout.
Turning to `Cc1cc(CC(C)CC(C)(C)C)n(O)c(=O)c1.NCCO` (stereo not shown) [piroctone olamine, 1-Hydroxy-4-methyl-6-(2,4,4-trimethylpentyl)-2-pyridone monoethanolamine salt, reference compound], the MIC in the test with C. mucofaciens (setting [2]) is below 5 µg/mL; in the test with S. epidermidis (setting [2]) it was 10 µg/mL. Besides, the “performance against the bacteria” value in test [1] is “perform particularly well”.
For `CCOC(=O)CC(O)(CC(=O)OCC)C(=O)OCC` [triethyl citrate] the same measures were 1600 µg/mL, 1600 µg/mL and “performing well”.

These data come from patent publication US11497706B2, “Antiperspirant and deodorant compositions” (The Procter & Gamble Company, priority 2017, dated 2022).
